These results are taken from patent US20180362485A1, “N-HYDROXYFORMAMIDE COMPOUNDS AND COMPOSITIONS COMPRISING THEM FOR USE AS BMP l, TLL1 AND/OR TLL2 INHIBITORS” (GlaxoSmithKline Intellectual Property (No. 2) Limited, priority 2015, published 2018).

SMILES strings stand for the structures.

The target in one assay is T1, human TLL2 (Homo sapiens, UniProt Q9Y6L7).
T1 construct: amino acids 26-1015 of human TLL2 (NM_012465); made in house
T1 sequence (Q9Y6L7 150-1015): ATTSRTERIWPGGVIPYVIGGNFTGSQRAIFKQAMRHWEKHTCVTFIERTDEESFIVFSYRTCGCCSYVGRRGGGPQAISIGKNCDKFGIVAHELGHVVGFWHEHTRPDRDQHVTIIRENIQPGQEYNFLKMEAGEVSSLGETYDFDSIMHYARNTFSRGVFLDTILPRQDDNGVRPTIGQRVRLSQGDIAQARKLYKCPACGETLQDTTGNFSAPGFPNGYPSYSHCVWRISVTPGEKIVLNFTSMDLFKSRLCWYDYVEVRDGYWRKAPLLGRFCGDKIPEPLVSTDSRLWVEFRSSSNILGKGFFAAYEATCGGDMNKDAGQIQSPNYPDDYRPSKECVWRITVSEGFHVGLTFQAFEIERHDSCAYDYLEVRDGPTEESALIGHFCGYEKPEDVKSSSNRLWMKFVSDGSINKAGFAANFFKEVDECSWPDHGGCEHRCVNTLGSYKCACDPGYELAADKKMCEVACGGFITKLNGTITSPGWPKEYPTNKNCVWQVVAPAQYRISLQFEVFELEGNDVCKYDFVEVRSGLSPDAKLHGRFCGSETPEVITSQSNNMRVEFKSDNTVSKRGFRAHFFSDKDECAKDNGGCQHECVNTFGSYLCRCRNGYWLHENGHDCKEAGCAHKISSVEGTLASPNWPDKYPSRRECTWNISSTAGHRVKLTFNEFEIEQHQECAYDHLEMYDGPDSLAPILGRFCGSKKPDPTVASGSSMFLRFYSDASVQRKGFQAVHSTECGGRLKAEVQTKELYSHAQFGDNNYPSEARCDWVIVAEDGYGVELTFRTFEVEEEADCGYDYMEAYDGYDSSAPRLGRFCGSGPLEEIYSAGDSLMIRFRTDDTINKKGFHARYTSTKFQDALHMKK
The assay is described as follows: Enzyme inhibition assay for human TLL2. The conditions noted are these: 18 nM TLL2, 5 μM promyostatin peptide substrate; read-out: pIC50, TLL2 enzyme inhibition assay (converted). In kind it is biochemical. An excerpt: Buffer components are purchased from Sigma-Aldrich (St. Louis, Mo.) or an equivalent supplier. The promyostatin peptide substrate is custom synthesized by American Peptide Company (Sunnyvale, Calif.) using the myostatin protein sequence (Uniprot accession number 014793) surrounding the cleavage site reviewed in Hopkins, D. R., et al., 2007 Matrix Biology, 26, 508-523. The procollagen peptide substrate used in the high enzyme BMP1 cleavage assay is custom synthesized by 21st Century Biochemicals (Marlboro, Mass.) using the procollagen Iα protein sequence (Uniprot accession number P02452) surrounding the cleavage site reviewed in Hopkins, D. R., et al., 2007 Matrix Biology, 26, 508-523.
The DNA sequence encoding amino acids 26-1015 of human TLL2 (NM_012465) is PCR amplified from DNA template with the human RAGE signal sequence at the N-terminus and Avi-6×His epitope tags at the C-terminus ([…]). […]
Inhibition of human TLL1 and TLL2 recombinant enzymes is measured in 10 ul endpoint assays in 384-well format using the same promyostatin peptide substrate employed in the above Enzyme Inhibition Assay for human BMP1. […] TLL1 and TLL2 reactions are quenched with 5 μl of 0.5 M EDTA and plates are read on a ViewLux (Perkin Elmer) multilabel plate reader using a 480 nm excitation filter and 540 nm emission filter. […]

For assay [1], the system named is deposition of mature collagen. The assay is described as follows: Cell-based inhibition assay of mature collagen deposition (immunostaining). The conditions noted are these: Cardiac fibroblast; human cardiac fibroblasts, immunostaining of mature collagen I; read-out: pIC50, mature collagen cellular inhibition assay (converted). The procedure: An adaptation of the collagen deposition assay described by Chen, C. Z. C., et al., British Journal of Pharmacology, 2009, 158, 1196-1209 is used to examine effect of compounds on procollagen I processing and collagen deposition. In the adapted assay, human cardiac fibroblasts are utilized. Processing of procollagen I is determined by a PICP ELISA assay and deposition of mature collagen is determined by immunostaining.
Human cardiac fibroblasts are cultured and maintained until passage 6 in FGM-3 media (Lonza, #CC-3132) in a 37° C. humidified incubator with 5% CO2. They are then seeded in 96-well black wall, clear bottom plates at 10,000 to 15,000 cells per well in eagle's minimum essential media (EMEM, ATCC #30-2003) containing 10% fetal bovine serum (FBS, Life Technologies #10082147), 1% Glutamax (Life Technologies #35050061) and 1% Penicillin and Streptomycin (Life Technologies #15070063). These cultures are placed in 37° C. incubator. The next day, media is removed by aspiration and cells are rinsed with phosphate buffered saline. Crowding media (also called ficoll media) is prepared by adding 112.5 mg/ml of ficoll70 and 75 mg/ml ficoll400 (GE healthcare #17-0310-10 and 17-0300-10, respectively), 100 μM ascorbic acid, 1% Glutamax and 1% Penicillin and Streptomycin to EMEM media. Test compounds (dissolved in DMSO) are diluted into crowding media and then added to the cells. Final concentration of DMSO in crowding media is less than 0.3%. Cells are treated for 24 to 48 hr in a 37° C. incubator. At the end of the treatment period, cell media are collected. The level of PICP in the media is determined by a PICP ELISA assay (Quidel #8003) following the manufacturer's protocol. Potencies of test compounds are calculated by fitting PICP levels, relative to untreated controls, to log (inhibitor) vs. response equation using Graphpad Prism software 5.0 and expressed as pIC50.
For some compounds, deposition of mature collagen is measured by immunostaining in addition to PICP levels. At the end of the treatment period, cells on culture plate are fixed with 100% methanol (prechilled to −20° C.) for 10 min. Then the cells are immunostained with mouse anti-mature collagen I antibody (1:500 dilution, Sigma#C2456), anti-mouse secondary antibody Alexa647 (1:500 dilution, Invitrogen#A21236) and Hoechst (for nuclei, 2 μg/ml, Invitrogen#H3596). Fluorescent image acquisition is done using the Operetta High Content Imaging system (Perkin Elmer). For each image field, the intensity of mature collagen staining is normalized with the number of nuclei. Normalized collagen levels are used to calculate the potency of test compounds with Graphpad Prism software, as described above.

On to `CCCCC[C@@H](C(=O)NCNC(=O)c1ccc(-c2ccccc2)o1)[C@@H](CC)N(O)C=O` [WO2015/104684 Example 24, N—(((R)-2-((R)-1-(N-hydroxyformamido)propyl)heptanamido)methyl)-5-phenylfuran-2-carboxamide], for which the figures for the IC50 (on human TLL2; in assay [1]) were under 794 nM and under 1000 nM, respectively.
